The text below walks through data of the supplement of paper PMC10307832.

Holding throughout (test): relative viability (nuclei count vs DMSO), 5 days (fraction); higher = more cells survive
Compound in assay [1]: C[C@@H](N)c1ccc(C(=O)Nc2ccnc3[nH]ccc23)cc1 + O=C(c1cc(Cc2n[nH]c(=O)c3ccccc23)ccc1F)N1CCN(C(=O)C2CC2)CC1 [Olaparib] (partner 8 µM)
Put shortly: (§1)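 Dosing by pin tool came one day after lung cancer cell lines were seeded in 1536-well plates, using either one drug or a fixed anchor-drug dose plus five library-drug doses (not always all listed) in √10 steps. After 5 days, nuclei were counted on 4× images. Relative viability is treated-well nuclei count divided by vehicle-well nuclei count, and values are medians of duplicate plates.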

Compound in the assay “Tanzisertib + Crizotinib”: O[C@H]1CC[C@H](Nc2ncc3nc(Nc4c(F)cc(F)cc4F)n([C@H]4CCOC4)c3n2)CC1 [Tanzisertib] + C[C@@H](Oc1cc(-c2cnn(C3CCNCC3)c2)cnc1N)c1c(Cl)ccc(F)c1Cl [Crizotinib] (partner 1 µM)
The essentials:
as §1

Compound in the assay “Tanzisertib + Linsitinib”: O[C@H]1CC[C@H](Nc2ncc3nc(Nc4c(F)cc(F)cc4F)n([C@H]4CCOC4)c3n2)CC1 [Tanzisertib] + C[C@]1(O)C[C@@H](c2nc(-c3ccc4ccc(-c5ccccc5)nc4c3)c3c(N)nccn32)C1 [Linsitinib] (partner 1 µM)
Put shortly: as §1

Compound in assay [2]: C1CNCCC1C2=CC(=NN2)C3=CC=NC=C3 + Nc1ncn([C@H]2C[C@H](O)[C@@H](CO)O2)c(=O)n1 [Decitabine] (partner 2 µM)
The essentials: as §1

As to NCI-H2405, the relative viability came out at 0.863 in assay [1] (first compound 0.1265 µM); 0.741 in assay [1] (first compound 0.4 µM); 0.587 in assay [1] (first compound 1.265 µM); 0.337 in assay [1] (first compound 4 µM); 0.935 with Tanzisertib + Crizotinib (first compound 0.08 µM); 0.825 with Tanzisertib + Crizotinib (first compound 0.253 µM). The relative viability with Tanzisertib + Crizotinib (first compound 0.8 µM) amounted to 0.828; in the assay with Tanzisertib + Crizotinib (first compound 2.53 µM), 0.916; with Tanzisertib + Crizotinib (first compound 8 µM), 0.789; with Tanzisertib + Linsitinib (first compound 0.08 µM) it was 0.954; with Tanzisertib + Linsitinib (first compound 0.253 µM), 0.881; with Tanzisertib + Linsitinib (first compound 0.8 µM), 0.968. Further, the relative viability with Tanzisertib + Linsitinib (first compound 2.53 µM) was found to be 0.904; with Tanzisertib + Linsitinib (first compound 8 µM) it was 0.702; in assay [2] (first compound 0.08 µM), 0.705; in assay [2] (first compound 0.8 µM), 0.735; in assay [2] (first compound 2.53 µM) it was 0.793; in assay [2] (first compound 8 µM), 0.753.

As to NCI-H3122, the relative viability in assay [1] (first compound 0.04 µM) is 0.625; in assay [1] (first compound 0.1265 µM), 0.613; in assay [1] (first compound 0.4 µM), 0.638; in assay [1] (first compound 1.265 µM), 0.702; in assay [1] (first compound 4 µM), 0.622; with Tanzisertib + Crizotinib (first compound 0.08 µM), 0.302. The relative viability with Tanzisertib + Crizotinib (first compound 0.253 µM) is 0.306; with Tanzisertib + Crizotinib (first compound 0.8 µM), 0.288; with Tanzisertib + Crizotinib (first compound 2.53 µM), 0.292; with Tanzisertib + Crizotinib (first compound 8 µM), 0.293; with Tanzisertib + Linsitinib (first compound 0.08 µM), 1.03; with Tanzisertib + Linsitinib (first compound 0.253 µM), 1.05. Moreover, the relative viability with Tanzisertib + Linsitinib (first compound 0.8 µM) is 1.09; with Tanzisertib + Linsitinib (first compound 2.53 µM), 0.898; with Tanzisertib + Linsitinib (first compound 8 µM) it was 1.03; in assay [2] (first compound 0.08 µM) it was 0.421; in assay [2] (first compound 0.8 µM), 0.453; in assay [2] (first compound 2.53 µM), 0.417. In assay [2] (first compound 8 µM), the relative viability amounted to 0.521.

Take PC-3 [JPC-3]: the relative viability in assay [1] (first compound 0.04 µM) worked out at 0.968; in assay [1] (first compound 0.1265 µM), 1.22; in assay [1] (first compound 0.4 µM), 1.13; in assay [1] (first compound 1.265 µM), 1.23; in assay [1] (first compound 4 µM), 1.01; with Tanzisertib + Crizotinib (first compound 0.08 µM), 0.969. The relative viability with Tanzisertib + Crizotinib (first compound 0.253 µM) is 1.05; with Tanzisertib + Crizotinib (first compound 0.8 µM), 0.989; with Tanzisertib + Crizotinib (first compound 2.53 µM) it was 0.971; with Tanzisertib + Crizotinib (first compound 8 µM) it was 0.994; with Tanzisertib + Linsitinib (first compound 0.08 µM), 1.05; with Tanzisertib + Linsitinib (first compound 0.253 µM), 0.957. Besides, the relative viability stood at 0.963 in the assay with Tanzisertib + Linsitinib (first compound 0.8 µM); 0.963 with Tanzisertib + Linsitinib (first compound 2.53 µM); 0.899 with Tanzisertib + Linsitinib (first compound 8 µM); 0.881 in assay [2] (first compound 0.08 µM); 0.77 in assay [2] (first compound 0.8 µM); 0.963 in assay [2] (first compound 2.53 µM). Also, the relative viability in assay [2] (first compound 8 µM) was 0.895.

For the cell line PC-14, the relative viability is 0.281 in assay [1] (first compound 0.04 µM); 0.233 in assay [1] (first compound 0.1265 µM); 0.263 in assay [1] (first compound 0.4 µM); 0.29 in assay [1] (first compound 1.265 µM); 0.271 in assay [1] (first compound 4 µM); 0.979 in the assay with Tanzisertib + Crizotinib (first compound 0.08 µM). Moreover, the relative viability in the assay with Tanzisertib + Crizotinib (first compound 0.253 µM) was found to be 0.878; with Tanzisertib + Crizotinib (first compound 0.8 µM), 0.994; in the assay with Tanzisertib + Crizotinib (first compound 2.53 µM) it was 0.883; with Tanzisertib + Crizotinib (first compound 8 µM), 0.574; in the assay with Tanzisertib + Linsitinib (first compound 0.08 µM), 1; in the assay with Tanzisertib + Linsitinib (first compound 0.253 µM), 0.987. For the same cell line, the relative viability with Tanzisertib + Linsitinib (first compound 0.8 µM) was found to be 0.885; with Tanzisertib + Linsitinib (first compound 2.53 µM) it was 0.942; with Tanzisertib + Linsitinib (first compound 8 µM), 0.572; in assay [2] (first compound 0.08 µM) it was 0.22; in assay [2] (first compound 0.8 µM), 0.19; in assay [2] (first compound 2.53 µM), 0.268. In addition, the relative viability in assay [2] (first compound 8 µM) was 0.265.

Turning to RERF-LC-KJ, the relative viability in assay [1] (first compound 0.04 µM) worked out at 0.879; in assay [1] (first compound 0.1265 µM), 0.906; in assay [1] (first compound 0.4 µM), 0.894; in assay [1] (first compound 1.265 µM) it was 0.934; in assay [1] (first compound 4 µM), 0.86; with Tanzisertib + Crizotinib (first compound 0.08 µM), 0.865. In addition, the relative viability is 0.804 with Tanzisertib + Crizotinib (first compound 0.253 µM); 0.859 with Tanzisertib + Crizotinib (first compound 0.8 µM); 0.856 with Tanzisertib + Crizotinib (first compound 2.53 µM); 0.798 with Tanzisertib + Crizotinib (first compound 8 µM); 0.942 with Tanzisertib + Linsitinib (first compound 0.08 µM); 0.834 with Tanzisertib + Linsitinib (first compound 0.253 µM). Further, the relative viability with Tanzisertib + Linsitinib (first compound 0.8 µM) worked out at 0.971; with Tanzisertib + Linsitinib (first compound 2.53 µM), 0.862; in the assay with Tanzisertib + Linsitinib (first compound 8 µM), 0.877; in assay [2] (first compound 0.08 µM) it was 0.692; in assay [2] (first compound 0.8 µM), 0.689; in assay [2] (first compound 2.53 µM), 0.766. Besides, the relative viability in assay [2] (first compound 8 µM) was 0.668.

With SK-LU-1, the relative viability in assay [1] (first compound 0.04 µM) amounted to 0.459; in assay [1] (first compound 0.1265 µM), 0.446; in assay [1] (first compound 0.4 µM), 0.436; in assay [1] (first compound 1.265 µM) it was 0.321; in assay [1] (first compound 4 µM), 0.376; with Tanzisertib + Crizotinib (first compound 0.08 µM), 0.994. Further, the relative viability with Tanzisertib + Crizotinib (first compound 0.253 µM) was determined as 0.776; with Tanzisertib + Crizotinib (first compound 0.8 µM), 1.03; with Tanzisertib + Crizotinib (first compound 2.53 µM), 1.05; in the assay with Tanzisertib + Crizotinib (first compound 8 µM) it was 0.834; with Tanzisertib + Linsitinib (first compound 0.08 µM), 1.16; with Tanzisertib + Linsitinib (first compound 0.253 µM), 1.15. For the same cell line, the relative viability is 1.14 in the assay with Tanzisertib + Linsitinib (first compound 0.8 µM); 1.17 with Tanzisertib + Linsitinib (first compound 2.53 µM); 1.23 with Tanzisertib + Linsitinib (first compound 8 µM); 0.571 in assay [2] (first compound 0.08 µM); 0.646 in assay [2] (first compound 0.8 µM); 0.674 in assay [2] (first compound 2.53 µM). The relative viability in assay [2] (first compound 8 µM) was 0.638.

On to SK-MES-1, for which the relative viability in assay [1] (first compound 0.04 µM) came out at 0.813; in assay [1] (first compound 0.1265 µM), 0.834; in assay [1] (first compound 0.4 µM), 0.697; in assay [1] (first compound 1.265 µM), 0.639; in assay [1] (first compound 4 µM) it was 0.638; with Tanzisertib + Crizotinib (first compound 0.08 µM), 0.986. Also, the relative viability was 0.97 with Tanzisertib + Crizotinib (first compound 0.253 µM); 0.961 with Tanzisertib + Crizotinib (first compound 0.8 µM); 0.965 with Tanzisertib + Crizotinib (first compound 2.53 µM); 0.916 with Tanzisertib + Crizotinib (first compound 8 µM); 1.08 in the assay with Tanzisertib + Linsitinib (first compound 0.08 µM); 1.06 with Tanzisertib + Linsitinib (first compound 0.253 µM). Further, the relative viability with Tanzisertib + Linsitinib (first compound 0.8 µM) was 1.06; with Tanzisertib + Linsitinib (first compound 2.53 µM), 1.12; in the assay with Tanzisertib + Linsitinib (first compound 8 µM), 0.832; in assay [2] (first compound 0.08 µM), 0.29; in assay [2] (first compound 0.8 µM), 0.436; in assay [2] (first compound 2.53 µM), 0.397. The relative viability in assay [2] (first compound 8 µM) was 0.339.

Turning to SW 1573, the relative viability in assay [1] (first compound 0.04 µM) is 0.534; in assay [1] (first compound 0.1265 µM) it was 0.531; in assay [1] (first compound 0.4 µM), 0.446; in assay [1] (first compound 1.265 µM) it was 0.44; in assay [1] (first compound 4 µM) it was 0.361; with Tanzisertib + Crizotinib (first compound 0.08 µM), 0.769. For the same cell line, the relative viability with Tanzisertib + Crizotinib (first compound 0.253 µM) was 0.798; with Tanzisertib + Crizotinib (first compound 0.8 µM), 0.769; with Tanzisertib + Crizotinib (first compound 2.53 µM) it was 0.872; with Tanzisertib + Crizotinib (first compound 8 µM), 0.611; with Tanzisertib + Linsitinib (first compound 0.08 µM) it was 0.968; with Tanzisertib + Linsitinib (first compound 0.253 µM), 0.85. Moreover, the relative viability with Tanzisertib + Linsitinib (first compound 0.8 µM) was 0.703; in the assay with Tanzisertib + Linsitinib (first compound 2.53 µM) it was 0.753; in the assay with Tanzisertib + Linsitinib (first compound 8 µM), 0.672; in assay [2] (first compound 0.8 µM) it was 0.471; in assay [2] (first compound 2.53 µM) it was 0.711; in assay [2] (first compound 8 µM), 0.76.
